Laboratory results as given in patent US7838695B2, “Neuroactive substance and uses of one such substance” (Universite de Nantes, priority 2003, dated 2010).
“Also recorded” adds a separate entry of the source.

Experiments:
[1] = system: axonal cockroach sodium and potassium channels; assay: Isolated giant axon under imposed potential and imposed current; format: cell-based, Periplaneta americana
Protocol: Firstly, the neuronal sodium and potassium channels were studied. These channels are involved in action potential generation. This study was conducted on cockroach (Periplaneta americana) giant axons. The giant axon of these cockroaches was isolated in ventral abdominal nerve chain connective tissue. During the experiment, the axon is immersed in physiological fluid. The experiment is performed under imposed potential and imposed current in the absence and presence of the substance according to formula (II).

[2] = system: maintained LVA calcium channels (mLVA); assay: mLVA calcium current in DUM neurons in the presence of nickel chloride (patch-clamp); format: cell-based, Periplaneta americana; conditions: in the presence of 100 μm nickel chloride
[3] = system: high voltage activated calcium channels (HVA); assay: HVA calcium current in DUM neurons (patch-clamp); format: cell-based, Periplaneta americana
cockroach DUM neurons [4] = assay: Spontaneous pacemaker electrical activity of DUM neurons (whole cell patch-clamp); format: cell-based, Periplaneta americana
Protocol: (§1) A second experiment was conducted on dorsal unpaired median neurons (DUM neurons) from the central nervous system of cockroaches (Periplaneta americana). In particular, these neurons secrete a biogenous amine, octopamine, a neuromediator wherein the chemical structure is similar to […] in vertebrates. They represent a good study model as they display electrophysiological properties similar to those of dopaminergic neurons in vertebrates. These DUM neurons are isolated from the medio-dorsal line of the last terminal abdominal ganglion of the nerve chain of adult male cockroaches, by means of enzyme digestion and mechanical dissociation, according to the technique described by […] et al (J. Exp. Biol., 1989, 144; 535-549). The neurons isolated in this way are kept in culture at 29° C. for 24 hrs before testing. The whole cell configuration patch-clamp technique is used to measure the electrical activity and the calcium currents (imposed potential and/or current conditions) according to the model described by Grolleau and […]. Neurophysiol. 1995, 73; 160-171).

[5] = system: transient LVA calcium channels (tLVA); assay: tLVA calcium current in DUM neurons (overall LVA minus mLVA); format: cell-based, Periplaneta americana
cockroach DUM neurons [6] = assay: Electrical activity of DUM neurons activated by injecting depolarising current; format: cell-based, Periplaneta americana
Protocol: as §1, with “160-171). Experiments were also conducted on an electrical activity activated by injecting a level of depolarising current controlled in amplitude and duration (FIG. 6). The results obtained under these conditions are in agreement with the experiments conducted on spontaneous activity. […]” for “160-171).”

[7] = system: low voltage activated calcium channels (LVA); assay: Overall LVA calcium current in DUM neurons (patch-clamp); format: cell-based, Periplaneta americana; conditions: +50 mV depolarising pulse from −100 mV reference potential
[8] = system: Phormia terrae novae larvae; assay: Neuroactivity test by injection in Diptera larvae; format: in vivo
Protocol: The neuroactivity of the substance according to formula (I) was then tested by injecting in Diptera larvae. Within this scope, the inventors used Phormia terrae novae species Cyloraphe larvae at larval stage III, just before the imago stage enabling metamorphosis to a pupa or nymph. […] The product is injected using a precision micro-syringe fitted with a bevelled hypodermic needle. The needle is inserted into the last abdominal segment of the animal on the dorsal side. The injection is deemed successful if the larva is still mobile at the tip of the needle. In this type of test, contraction or relaxation for at least 5 seconds is defined as a positive response, but the intensity and duration are dose-dependent while the absence of any symptom for 10 min represents a negative response. Substance (II) was tested by injecting a single 350 μg dose of product per larva (mean larva weight 70 mg), by injecting 7 A1 of a 50 mg/ml solution of the product in the 85-15 v/v water:DMSO mixture. This concentration was then diluted by half until no larval activity was detected.

SMILES: CC(=O)O[C@@H]1CC[C@@]23O[C@@H]2[C@H](O)C[C@@H](C)[C@]3(C)[C@@H]1C(C)=O [substance according to formula (II), 6S-acetyl-4R,5R-dimethyl-1R(10S)-epoxy-2R-hydroxy-7R-acetoxydecahydronaphthalene]
- activity on axonal sodium and potassium channels (change on the action potential) [1]: no activity
- amplitude of the mLVA current [2]: neither the amplitude of the mLVA current (FIGS. 10 and 11) or that of HVA are modified
- reduction of HVA calcium current amplitude ([3]; +90 mV depolarising pulse from −100 mV reference potential, n=7): 9%
- amplitude of the HVA current ([3]; in the presence of 100 μm nickel chloride): neither the amplitude of the mLVA current (FIGS. 10 and 11) or that of HVA are modified
- action potential amplitude (cockroach DUM neurons [4]; 4-AP 2 mM): remains unchanged
- post-hyperpolarisation phase (cockroach DUM neurons [4]; 4-AP 2 mM): increased
- pre-depolarisation slope (cockroach DUM neurons [4]; 4-AP 2 mM): higher
- action potential frequency increased by a factor (cockroach DUM neurons [4]; 100 μm substance, in the presence of 4-AP 2 mM): 2.1
- action on tLVA calcium channel [5]: specific activator; also recorded: specific action; also recorded: potentiating
- action potential amplitude or duration (cockroach DUM neurons [6]): No change
- discharge frequency (cockroach DUM neurons [6]): increase in the discharge frequency
- maintained component measured at the end of the depolarising pulse [7]: not affected
- increase of amplitude of the overall LVA calcium current ([7]; n=7): 81%
- MAC ([8]; calculated with molecular weight 296 g per mole): approximately 1 mM/mg of larvae
- minimum active concentration on diptera larvae ([8]; injection into larvae, halving dilutions until no larval activity): 3.1 μg per μl and per 10 mg of larvae
